Like-named read-outs stand apart in the source and are kept apart here.
What was measured:
[1] = system: MC38 tumor cells; details: IT 5 ug/mouse every three days, three injections; for anti-tumor efficacy (tumor growth, FIG. 1): single agent, subcutaneous MC38
Protocol: To Evaluate the in vivo efficacy of A5-I, A5-II, A6-I and A6-II, C57BL/6 mouse was subcutaneously inoculated in the right flank with MC38 tumor cells (1×10^6) in 40 ul of HBSS for tumor development. Treatment started when tumor size reached around 80-100 mm^3, on day 7 after tumor cell implantation. Compounds were administered by IT injection and repeated every three days with total three injections. […] Tumor volumes were measured twice to thrice weekly.

[2] = system: MC38 tumor cells; experiment: MC38 murine syngeneic model, Example 98 (Table 5); format: in vivo, C57BL/6 mouse; details: IT, Q3d × 3; doses per Table 5 (A5-I 3, A19 50 and 17, A33 17×2/8×1, A34 50, A38 51×1/17×2, A69 50, A71 50, A85 46 μg/mouse)
Protocol: Example 98. Evaluation of Compound A5-I, A19, A33, A34, A38, A69, A71 and A85 in MC38 Murine Syngeneic Model
Compounds (listed in Table 5), were administered by IT injection.

[3] = target: T1, hSTING R232 (Homo sapiens, UniProt Q86WV6, H232R); experiment: IRF activation in 293T-Dual hSTING R232 cells (Quanti-Blue); format: cell-based; details: 24 hr, read-out: EC50 IRF3
T1 construct: host or cells: 293T-Dual hSTING R232 cells
Protocol: A test compound with a serial of 1:3 dilution was prepared in complete medium, and 20 μL of the compound was added to the corresponding well, and incubated with the cells at 37° C. incubator for 24 hr.
To determine the effect on interferon regulatory factor (IRF) activation, 15 μL of cell culture supernatant was transferred into a fresh 96-half area-well plate, 90 μL of Quanti-Blue was added to each well and incubated at 37° C. for 90 min. OD at 650 nm was recorded. EC50 was calculated by nonlinear regression fit with 4-parameter responsive curve fitting using GraphPad Version 8 software (Table 2).

[4] = target: T2, Human STING (hSTING-R232) (Homo sapiens, UniProt Q86WV6, H232R); experiment: Activation of human STING signaling in THP1-Dual KI-hSTING-R232 cells (IRF promoter, QUANTI-Luc); format: cell-based; details: THP1 cell line, 24 h, read-out: EC50 IRF3
T2 construct: host or cells: THP1-Dual KI-hSTING-R232 cells
Protocol: Activation of Human STING Signaling in THP1 Cell Line
The cells were treated with 20 μl/well of compounds at 8 concentrations in duplicate in 96-well plate, and incubate for 24 h. To measure IRF promoter activity, 15 μl of cell culture supernatant was mixed with 45 μl QUANTI-Luc in an opaque 96-well plate and immediately measured using Luminometer; to measure NF-κB promoter activity, 15 μl of supernatant was mixed with 90 μl QUANTI-Blue, and incubated at 37° C. for 90 minutes, and read at OD650 nm. EC50 was calculated by nonlinear regression fit with 4-parameter responsive curve fitting using GraphPad Version 8 software (Table 1).

T2 sequence (Q86WV6 whole entry H232R): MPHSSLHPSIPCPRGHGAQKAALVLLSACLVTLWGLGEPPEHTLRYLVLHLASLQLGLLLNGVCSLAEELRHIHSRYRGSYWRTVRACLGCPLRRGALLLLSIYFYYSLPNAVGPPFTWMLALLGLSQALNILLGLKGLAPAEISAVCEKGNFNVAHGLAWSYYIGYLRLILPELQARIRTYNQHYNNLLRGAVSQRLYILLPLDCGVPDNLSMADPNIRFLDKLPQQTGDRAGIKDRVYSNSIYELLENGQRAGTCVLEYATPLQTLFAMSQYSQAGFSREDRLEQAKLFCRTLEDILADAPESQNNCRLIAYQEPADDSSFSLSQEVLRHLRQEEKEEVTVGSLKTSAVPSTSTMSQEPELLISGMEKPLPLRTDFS
T1 sequence (Q86WV6 whole entry H232R): as above

SMILES: B[P@@]1(=O)OC[C@H]2O[C@@H](n3cnc4c(N)ncnc43)[C@H](F)[C@@H]2O[P@](=O)(S)OC[C@H]2O[C@@H](n3cnc4c(N)ncnc43)[C@H](F)[C@@H]2O1 [Compound A6-II]
- anti-tumor efficacy (tumor growth, FIG. 1) [1]: significant anti-tumor efficacy

SMILES: B[P@]1(=O)OC[C@H]2O[C@@H](n3cnc4c(N)ncnc43)[C@H](F)[C@@H]2O[P@@](=O)(S)OC[C@H]2O[C@@H](n3cnc4c(N)ncnc43)[C@H](F)[C@@H]2O1 [Compound A5-I, ((2R,3R,3aR,5S,7aR,9R,10R,10aR,12S,14aR)-2,9-bis(6-amino-9H-purin-9-yl)-3,10-difluoro-12-mercapto-5,12-dioxidooctahydro-2H,7H-difuro [3,2-d:3′,2′-j][1,3,7,9]tetraoxa[2,8]diphosphacyclododecin-5-yl)trihydroborate]
- anti-tumor activity compared to vehicle-treated group (FIG. 5) [2]: significantly improved anti-tumor activity
- tumor regression (FIG. 1) [1]: complete regression for all treated mice
- anti-tumor efficacy (tumor growth, FIG. 1) [1]: significant anti-tumor efficacy

SMILES: BP1(=O)OC[C@H]2O[C@@H](n3cnc4c(N)ncnc43)[C@H](F)[C@@H]2O[P@@](=O)(S)OC[C@H]2O[C@@H](n3cnc4c(=O)[nH]c(N)nc43)[C@H](F)[C@@H]2O1 (single isomer, unassigned) [Compound A1]
- EC50 [3]: 59 nM
- EC50 ([4]; Assay Results 1 (average of more than 2 runs)): 450 nM
- EC50 ([4]; Assay Results 2 (single run)): 564 nM

SMILES: BP1(=O)OC[C@H]2O[C@@H](n3cnc4c(N)ncnc43)[C@H](F)[C@@H]2O[P@](=O)(S)OC[C@H]2O[C@@H](n3cnc4c(N)ncnc43)[C@H](F)[C@@H]2O1 (some centres unmarked) [Compound A6-I]
- anti-tumor efficacy (tumor growth, FIG. 1) [1]: significant anti-tumor efficacy

Source: US20240066133A1, “THERAPEUTIC AGENTS AND CONJUGATES THEREOF” (Beijing Xuanyi PharmaSciences Co., Ltd., priority 2020, published 2024)
